Article PMC4660440 (Scientific Reports, 2015)
Read-outs that look alike come from different tables or passages of the source.

Experiments:
tubulin = experiment: Tubulin assembly centrifugation assay in vitro; assay type: biochemical; conditions: for Inhibition of microtubule polymerization compared with colchicine: colchicine as positive control
Protocol: Ligands were dissolved in DMSO at 20 mM and kept at −80 °C. Work solutions were done in DMSO and kept at −20 °C. The 50% inhibitory ligand concentration of tubulin assembly was determined with a centrifugation assay. Tubulin was equilibrated prior to use in 3.4 M glycerol, 1 mM EGTA, 0.1 mM GTP, pH 7.0, buffer through a 25 cm × 0.9 cm Sephadex G-25 column. Aggregates were removed by a centrifugation at 90000 g × 10 min in a TLA 120 rotor at 4 °C in an Optima TLX centrifuge. Tubulin concentration was determined as described by Andreu^42. Tubulin was kept at 4 °C, and 0.9 mM GTP and 6 mM MgCl2 were added to the sample. The solution was distributed in 200 μL polycarbonate tubes for the TL100 rotor. Growing concentrations of the ligands ranging from 0 to 25 μM were added to the samples (DMSO content of the samples, 2.5%), which were incubated for 30 min at 37 °C. Microtubules were separated from unassembled tubulin by a centrifugation at 90000 g × 10 min in a TLA100 rotor at 37 °C in an Optima TLX centrifuge. The supernatant containing unassembled tubulin was carefully collected and the microtubule pellet resuspended in 10 mM sodium phosphate buffer, pH 7.0, containing 1% SDS. Both supernatants and pellets were diluted 1:5 in the same buffer, and tubulin concentrations were measured fluorometrically (λexc = 280; λems = 323) using tubulin standards calibrated spectrophotometrically. The 50% inhibitory ligand concentration of tubulin assembly was determined with a centrifugation assay that measured the decrease in the concentrations of microtubules assembled in the presence of different concentrations of the compound.

A549 = experiment: MTT cytotoxicity assay, A549; assay type: cell-based; conditions: mean ± SD (n = 3), read-out: Cytotoxic activity (IC50) A549
Protocol: (§1) HeLa, BGC823, A-549, MCF-7 and HT-7702 cell lines were obtained from the ATCC. […] Tumor cells (3500–13,000) were seeded into 96-well microtest plates in 100 μL of culture medium per well, incubated for 48 h in the presence or absence of test compounds (8 different concentrations ranging from 100 to 0.01 μg/mL). For quantitative estimation of cytotoxicity, the (MTT) method was used, essentially performed as described previously. Briefly, cells were washed twice with PBS, fixed for 15 min in 1% glutaraldehyde solution, rinsed twice in PBS, and stained in 0.5% MTT solution for 4 h at 37 °C. […] The initial seeding densities varied among the cell lines to ensure a final absorbance reading in control (untreated) cultures within the range of 0.6–0.8 A492 units. Drug exposure was carried out for 2 days, and the IC50 value, i.e., the drug concentration that decreased the absorbance by 50%, was extrapolated from dose-response data. Each test was performed in triplicate, and the absorbance readings between the triplicates varied by no more than 10%.

[1] = system: microtubules in HeLa cells; experiment: Immunofluorescence of cellular microtubules; assay type: cell-based; conditions: for Cellular depolymerization of microtubules: 12 and 24 h, compared with negative control 0.1% DMSO; for Appearance of microtubules after treatment: immunofluorescence
Protocol: Cells (20000 per mL) were plated a onto 6-well tissue culture plates containing 12 mm round coverslips, cultured overnight, and then treated with different drugs at […] concentrations or drug vehicle (0.1% DMSO) for 12 h and 24 h. Attached cells were permeabilized. Cytoskeletons were incubated with α-tubulin, washed twice, and incubated with FITC goat anti-mouse immunoglobulins. The coverslips were washed, and 1 μg/mL DAPI to stain chromatin was added. The mixture was incubated for 30 min. After the samples were washed, they were examined and photographed using an Olympus epifluorescence microscope. The images were recorded with a Perkin Elmer camera.

HeLa cells [2] = experiment: Annexin V-FITC/PI apoptosis assay; conditions: 0.1 μM, 6, 12, 24 and 48 h
Protocol: The HeLa cell line was used for cell apoptosis. Cells (20000 per mL) were incubated with several concentrations of the compounds or drugs for 6–48 h, and incubated in DMEM medium supplemented with 12% fetal calf serum (FCS), 2 mM L -glutamine, and 100 mg/L penicillin G and 100 mg/L streptomycin at 37 °C and 5% CO2. The cells were washed with PBS twice, centrifuged at 206 g for 5 min, and 5–10[5] cells were collected. Binding buffer suspension (500 μL) was added to the cells, and then 5 μL of the FITC-Annexin V mix was added. Next, 10 μL of the PI mix was added, and the suspension was mixed and kept at room temperature for 30 min in the dark. Analysis was with a BD accur C6 flow cytometer.

MCF-7 = experiment: MTT cytotoxicity assay, MCF-7; assay type: cell-based; conditions: mean ± SD (n = 3), read-out: Cytotoxic activity (IC50) MCF-7
Protocol: as §1

HeLa = experiment: MTT cytotoxicity assay, HeLa; assay type: cell-based; conditions: drug exposure 48 h, mean ± SD (n = 3), read-out: Cytotoxic activity (IC50) HeLa
Protocol: as §1

[3] = system: BimEL, ATR, caspase 3, caspase 8, caspase 9, PARP in HeLa cells; experiment: Western blot analysis of apoptosis proteins; assay type: cell-based; conditions: 24 h treatment; for Extent of compound-induced BimEL / Extent of compound-induced PARP / Extent of compound-induced caspase 3 / Extent of compound-induced caspase 9 / Extent of compound-induced ATR: 5 μM, untreated control 0%, etoposide-induced activation 100%
Protocol: For electrophoresis, the proteins were separated by sodium dodecyl sulfate–polyacrylamide gel electro-phoresis (SDS–PAGE). The proteins were then transferred to a nitrocellulose membrane, which was blocked with 5% skimmed milk in phosphate buffered saline Tween-20 (PBST). A specific primary antibody was added to bind the target proteins for either 1 h at room temperature or overnight at 4 °C. A horseradish peroxidase (HRP) conjugated secondary antibody was added to the membrane after the primary antibody was washed off. All signals were detected after the HRP was activated by enhanced chemiluminescence. The band intensities of Western results were quantitated with the Image Quant program (Molecular Dynamics Inc.), analyzed and graphed. The untreated controls and the etoposideinduced activation of signaling molecules were taken as 0% and 100%, respectively. Statistic analysis was performed with the uni-polar, paired Student t-test. Data were considered significant when P value was less than 0.05.

HL-7702 = experiment: MTT cytotoxicity assay, normal hepatic cell line HL-7702; assay type: cell-based; conditions: human normal hepatic immortal cell line, drug exposure 48 h, mean ± SD (n = 3), read-out: Cytotoxic activity (IC50) HL-7702
Protocol: as §1

BGC-823 = experiment: MTT cytotoxicity assay, BGC-823; assay type: cell-based; conditions: mean ± SD (n = 3), read-out: Cytotoxic activity (IC50) BGC-823
Protocol: as §1

HeLa cells [4] = experiment: Cell cycle analysis by flow cytometry (PI); assay type: cell-based; conditions: for Effect on HeLa cell cycle: 0.1, 1.0, 5.0 μM, 6, 12, 24, 48 h; for Ratio of cell cycle arrest (of total cells): 0.1 μM, 6, 12, 24 and 48 h; for Total cell cycle arrest percentage (right peak of histogram): 48 h
Protocol: The HeLa cell line was used for cell cycle analysis. Progression through the cell cycle was assessed by flow cytometry DNA determination with Propidium Iodide (PI). […] Flow cytometric analysis was performed using a BD accur C6 flow cytometer. Analysis was with Mod FIT software.

[5] = MTT cytotoxicity assay, normal hepatic cell line HL-7702; assay type: cell-based; conditions: HL-7702 normal hepatic cells, human normal hepatic immortal cell line, drug exposure 48 h, mean ± SD (n = 3), read-out: Cytotoxic activity (IC50) HL-7702
Protocol: as §1

topoisomerase II = experiment: kDNA decatenation assay; assay type: biochemical; conditions: 100 μM
Protocol: The decatenation of kDNA was assayed according to TopoGen protocol in order to determine topoisomerase II activity. The substrate kDNA (200 ng) and 100 μM drugs were combined in assay buffer and incubated for 10 min on ice. Next, 1 U of topoisomerase II was added and the reaction was allowed to proceed for 15 min at 37 °C. The reaction was quenched via the addition of loading buffer (1% sarkosyl, 0.025% bromophenol blue, and 5% glycerol) and was then analyzed by electrophoresis on a 1% agarose gel in TBE buffer for 30 min at 130 V. The gel was stained with SYBR Green I (Molecular Probes) for 30 min and was visualized under UV illumination and photographed on a Tanon Imager.

[6] = Homo sapiens, A549, drug exposure 48 h
[7] = Homo sapiens, MCF7, drug exposure 48 h
[8] = Homo sapiens, BGC-823, drug exposure 48 h

Row | Structure (SMILES) | Inhibition of microtubule polymerization compared with colchicine (tubulin) | Cellular depolymerization of microtubules [1] | Appearance of microtubules after treatment [1] | Ratio of apoptotic Hela cells (of total cells) (HeLa cells [2]) | BimEL level (pro-apoptotic protein) [3] | Effect on HeLa cell cycle (HeLa cells [4]) | Ratio of cell cycle arrest (of total cells) (HeLa cells [4]; HeLa) | Total cell cycle arrest percentage (right peak of histogram) (HeLa cells [4]; HeLa, 5.0 μM) | IC50 (A549; [6]) | IC50 (MCF-7; [7]) | Extent of compound-induced BimEL [3] | Extent of compound-induced PARP [3] | Extent of compound-induced caspase 3 [3] | Extent of compound-induced caspase 9 [3] | IC50 at 48 h [5] | IC50 (BGC-823; [8]) | Extent of compound-induced ATR [3] | other results
1 | COc1ccc(NC2c3cc4c(cc3C(c3cc(OC)c(OC)c(OC)c3)C3C(=O)OCC23)OCO4)cc1F (stereo not drawn) [Compound 19, 4β-NH-(3-fluoro-4-methoxyaniline)-4-deoxy-podophyllotoxin] | effects higher than colchicine | able to cause cellular depolymerization of microtubules | greatly disrupted and disappeared | less than 15% | significantly increased | arrested at the G2/M phase | less than 10% | 96.2% | – | – | – | – | – | – | – | – | – | GI50 (tubulin; centrifugation assay, ligand 0 to 25 μM, 30 min at 37 °C, read-out: GI50, inhibition of microtubule polymerization (tubulin assembly)): < 1 µM; IC50 (A549; drug exposure 48 h): 1.76 ± 0.07 µM; IC50 (MCF-7; drug exposure 48 h): 2.01 ± 0.21 µM; IC50 (HeLa): 0.72 ± 0.08 µM; IC50 (HL-7702): 55.4 ± 0.64 µM; IC50 (BGC-823; drug exposure 48 h): 1.61 ± 0.11 µM; Percentage of cell cycle arrest (right peak of histogram) (HeLa cells [4]; HeLa, 5.0 μM, 12 h): 83.0%
2 | COc1ccc(N[C@@H]2c3cc4c(cc3[C@@H](c3cc(OC)c(OC)c(OC)c3)[C@H]3C(=O)OC[C@@H]32)OCO4)cc1Cl [Compound 18, 4β-NH-(3-chloride-4-methoxyaniline)-4-deoxy-podophyllotoxin] | effects higher than colchicine | able to cause cellular depolymerization of microtubules | greatly disrupted and disappeared | less than 15% | significantly increased | arrested at the G2/M phase | less than 10% | 94.4% | 3.72 ± 0.29 µM | 3.54 ± 0.14 µM | 58% | 84% | 56% | 50% | 79 ± 2.33 µM | 3.52 ± 0.23 µM | – | –
3 | COc1ccc(N[C@@H]2c3cc4c(cc3[C@@H](c3cc(OC)c(O)c(OC)c3)[C@H]3C(=O)OC[C@@H]32)OCO4)cc1Cl [Compound 18′, 4β-NH-(3-chloride-4-methoxyaniline)-4-deoxy-4′-demethylepipodophyllotoxin] | – | – | – | less than 15% | – | arrested at the G2/M phase | less than 10% | – | 3.04 ± 0.23 µM | 3.18 ± 0.51 µM | – | 54% | 69% | 35% | 127.4 ± 0.46 µM | 1.77 ± 0.23 µM | 46% | IC50 (HeLa; Homo sapiens, HeLa, 48 h): 1.97 ± 0.16 µM
4 | COc1ccc(N[C@@H]2c3cc4c(cc3[C@@H](c3cc(OC)c(OC)c(OC)c3)[C@H]3C(=O)OC[C@@H]32)OCO4)cc1Br [Compound 17, 4β-NH-(3-bromide-4-methoxyaniline)-4-deoxy-podophyllotoxin] | – | able to cause cellular depolymerization of microtubules | – | less than 15% | – | arrested at the G2/M phase | less than 10% | 86.5% | 9.08 ± 0.26 µM | 10.1 ± 0.18 µM | 15% | 27% | 37% | 0% | 62.4 ± 1.96 µM | 7.91 ± 0.59 µM | – | –
5 | COc1ccc(N[C@@H]2c3cc4c(cc3[C@@H](c3cc(OC)c(O)c(OC)c3)[C@H]3C(=O)OC[C@@H]32)OCO4)cc1Br [Compound 17′, 4β-NH-(3-bromide-4-methoxyaniline)-4-deoxy-4′-demethylepipodophyllotoxin] | – | – | – | – | – | arrested at the G2/M phase | – | – | – | 6.51 ± 0.37 µM | – | 52% | 43% | 34% | 91.8 ± 1.57 µM | 5.63 ± 0.12 µM | 26% | Inhibition of the catalytic activity of Topo II (kDNA decatenation) (topoisomerase II): completely inhibited
